Patent US8987195B2 (priority 2012, dated 2015)
Read-outs that look alike come from different tables or passages of the source.

Legend:
HCV genotype 1b replicon = experiment: HCV replicon assay, genotype 1b replicon EC50; format: cell-based, Hepatitis C virus; conditions: Hepatitis C virus, genotype 1b replicon, read-out: EC50 [gt-1b]
Outline: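 Compound dilution series incubated 24-48 h, G418 absent, with HCV genotype 1b replicon cell lines kept under G418 selection beforehand. Luciferase signal or replicon RNA, by ^32P hybridization/protection or TaqMan normalized to cyclophilin A, was measured after washing and lysis. Four-parameter fitting against DMSO control gave EC50.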

[1] = biological target: HCV NS3/4A protease genotype 1b (Hepatitis C virus genotype 1b, UniProt P26663); experiment: HCV NS3/4A protease time-resolved fluorescence (TRF) assay, Ki against genotype 1b; format: biochemical; conditions: IC50 [gt-1b] (nM), NS3/4A genotype 1b, enzyme 0.2 nM
Outline: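 Time-resolved fluorescence readout of NS3/4A cleavage of 25 nM europium-labelled peptide over 2.5 h at room temperature, enzyme levels set for signal/background 10–30 (0.2, 0.4, 0.025 nM for 1b, A156T, 3a). Ki by IC50=Ki(1+[S]/KM).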

Compound	EC50 (HCV genotype 1b replicon) [nM]	IC50 [1] [nM]	EC50 (HCV genotype 1b replicon; K+ salt) [nM]	IC50 ([1]; K+ salt) [nM]
CC(C)(OC(=O)N[C@H]1CCCCC/C=C\[C@@H]2C[C@@]2(C(=O)NS(=O)(=O)C2(C)CC2)NC(=O)[C@@H]2C[C@]3(CCc4c(c(C(F)F)nc5ccc(Cl)cc45)O3)CN2C1=O)C(F)(F)F [Example 334, 1,1,1-trifluoro-2-methylpropan-2-yl [(2R,6S,12Z,13aS,14aR,16aS)-9′-chloro-5′-(difluoromethyl)-14a-{[(1-methylcyclopropyl)sulfonyl]carbamoyl}-5,16-dioxo-1,1′,2′,5,6,7,8,9,10,11,13a,14,14a,15,16,16a-hexadecahydrospiro[cyclopropa[e]pyrrolo[1,2-a][1,4]diazacyclopentadecine-2,3′-pyrano[2,3-c]quinolin]-6-yl]carbamate]	5.59	0.019		
CCc1nc2ccc(OC)cc2c2c1O[C@]1(CC2)C[C@H]2C(=O)N[C@]3(C(=O)NS(=O)(=O)C4(C)CC4)C[C@H]3/C=C\CCCCC[C@H](NC(=O)OC(C)(C)C(F)(F)F)C(=O)N2C1 [Example 335, 1,1,1-trifluoro-2-methylpropan-2-yl [(2R,6S,12Z,13aS,14aR,16aS)-5′-ethyl-9′-methoxy-14a-{[(1-methylcyclopropyl)sulfonyl]carbamoyl}-5,16-dioxo-1,1′,2′,5,6,7,8,9,10,11,13a,14,14a,15,16,16a-hexadecahydrospiro[cyclopropa[e]pyrrolo[1,2-a][1,4]diazacyclopentadecine-2,3′-pyrano[2,3-c]quinolin]-6-yl]carbamate]	2.6	0.017		
CCc1nc2ccc(OC)cc2c2c1O[C@]1(CC2)C[C@H]2C(=O)N[C@]3(C(=O)NS(=O)(=O)C4(C)CC4)C[C@H]3/C=C\CCCCC[C@H](NC(=O)OC3CCCC3)C(=O)N2C1 [Example 336, cyclopentyl [(2R,6S,12Z,13aS,14aR,16aS)-5′-ethyl-9′-methoxy-14a-{[(1-methylcyclopropyl)sulfonyl]carbamoyl}-5,16-dioxo-1,1′,2′,5,6,7,8,9,10,11,13a,14,14a,15,16,16a-hexadecahydrospiro[cyclopropa[e]pyrrolo[1,2-a][1,4]diazacyclopentadecine-2,3′-pyrano[2,3-c]quinolin]-6-yl]carbamate]	3.46	0.008		
CCc1nc2ccc(OC)cc2c2c1O[C@]1(CC2)C[C@H]2C(=O)N[C@]3(C(=O)NS(=O)(=O)C4(C)CC4)C[C@H]3/C=C\CCCCC[C@H](NC(=O)OCC(C)C)C(=O)N2C1 [Example 337, 2-methylpropyl [(2R,6S,12Z,13aS,14aR,16aS)-5′-ethyl-9′-methoxy-14a-{[(1-methylcyclopropyl)sulfonyl]carbamoyl}-5,16-dioxo-1,1′,2′,5,6,7,8,9,10,11,13a,14,14a,15,16,16a-hexadecahydrospiro[cyclopropa[e]pyrrolo[1,2-a][1,4]diazacyclopentadecine-2,3′-pyrano[2,3-c]quinolin]-6-yl]carbamate]	2.37	0.009		
CCc1nc2ccc(OC)cc2c2c1O[C@]1(CC2)C[C@H]2C(=O)N[C@]3(C(=O)NS(=O)(=O)C4(C)CC4)C[C@H]3/C=C\CCCCC[C@H](NC(=O)OCC(C)(C)C)C(=O)N2C1 [Example 338, 2,2-dimethylpropyl [(2R,6S,12Z,13aS,14aR,16aS)-5′-ethyl-9′-methoxy-14a-{[(1-methylcyclopropyl)sulfonyl]carbamoyl}-5,16-dioxo-1,1′,2′,5,6,7,8,9,10,11,13a,14,14a,15,16,16a-hexadecahydrospiro[cyclopropa[e]pyrrolo[1,2-a][1,4]diazacyclopentadecine-2,3′-pyrano[2,3-c]quinolin]-6-yl]carbamate]	1.53	0.009		
Cc1nc2cc(F)ccc2c2c1O[C@]1(CC2)C[C@H]2C(=O)N[C@]3(C(=O)NS(=O)(=O)C4(C)CC4)C[C@H]3/C=C\CCCCC[C@H](NC(=O)OCC(C)(C)C)C(=O)N2C1 [Example 339, 2,2-dimethylpropyl [(2R,6S,12Z,13aS,14aR,16aS)-8′-fluoro-5′-methyl-14a-{[(1-methylcyclopropyl)sulfonyl]carbamoyl}-5,16-dioxo-1,1′,2′,5,6,7,8,9,10,11,13a,14,14a,15,16,16a-hexadecahydrospiro[cyclopropa[e]pyrrolo[1,2-a][1,4]diazacyclopentadecine-2,3′-pyrano[2,3-c]quinolin]-6-yl]carbamate]	1.92	0.019		
Cc1nc2cc(F)ccc2c2c1O[C@]1(CC2)C[C@H]2C(=O)N[C@]3(C(=O)NS(=O)(=O)C4(C)CC4)C[C@H]3/C=C\CCCCC[C@H](NC(=O)OCC(C)C)C(=O)N2C1 [Example 340, 2-methylpropyl [(2R,6S,12Z,13aS,14aR,16aS)-8′-fluoro-5′-methyl-14a-{[(1-methylcyclopropyl)sulfonyl]carbamoyl}-5,16-dioxo-1,1′,2′,5,6,7,8,9,10,11,13a,14,14a,15,16,16a-hexadecahydrospiro[cyclopropa[e]pyrrolo[1,2-a][1,4]diazacyclopentadecine-2,3′-pyrano[2,3-c]quinolin]-6-yl]carbamate]	3.23	0.03		
COc1cccc(N[C@H]2CCCCC/C=C\[C@@H]3C[C@@]3(C(=O)NS(=O)(=O)C3(C)CC3)NC(=O)[C@@H]3C[C@]4(CCc5c(c(C)nc6ccccc56)O4)CN3C2=O)c1 [Example 341, (2R,6S,12Z,13aS,14aR,16aS)-6-[(3-methoxyphenyl)amino]-5′-methyl-N-[(1-methylcyclopropyl)sulfonyl]-5,16-dioxo-1,1′,2′,6,7,8,9,10,11,13a,14,15,16,16a-tetradecahydrospiro[cyclopropa[e]pyrrolo[1,2-a][1,4]diazacyclopentadecine-2,3′-pyrano[2,3-c]quinoline]-14a(5R)-carboxamide]	1.04	0.172		
Cc1cccc(N[C@H]2CCCCC/C=C\[C@@H]3C[C@@]3(C(=O)NS(=O)(=O)C3(C)CC3)NC(=O)[C@@H]3C[C@]4(CCc5c(c(C)nc6ccccc56)O4)CN3C2=O)n1 [Example 343, (2R,6S,12Z,13aS,14aR,16aS)-5′-methyl-N-[(1-methylcyclopropyl)sulfonyl]-6-[(6-methylpyridin-2-yl)amino]-5,16-dioxo-1,1′,2′,6,7,8,9,10,11,13a,14,15,16,16a-tetradecahydrospiro[cyclopropa[e]pyrrolo[1,2-a][1,4]diazacyclopentadecine-2,3′-pyrano[2,3-c]quinoline]-14a(5H)-carboxamide]	5.86	0.05		
Cc1nc2ccccc2c2c1O[C@]1(CC2)C[C@H]2C(=O)N[C@]3(C(=O)NS(=O)(=O)C4(C)CC4)C[C@H]3/C=C\CCCCC[C@H](N)C(=O)N2C1 [Example 344, (2R,6S,12Z,13aS,14aR,16aS)-6-amino-5′-methyl-N-[(1-methylcyclopropyl)sulfonyl]-5,16-dioxo-1,1′,2′,6,7,8,9,10,11,13a,14,15,16,16a-tetradecahydrospiro[cyclopropa[e]pyrrolo[1,2-a][1,4]diazacyclopentadecine-2,3′-pyrano[2,3-c]quinoline]-14a(5H)-carboxamide]	662	0.685		
Cc1nc2ccccc2c2c1O[C@]1(CC2)C[C@H]2C(=O)N[C@]3(C(=O)NS(=O)(=O)C4(C)CC4)C[C@H]3/C=C\CCCCC[C@H](Nc3cccc(F)c3)C(=O)N2C1 [Example 345, (2R,6S,12Z,13aS,14aR,16aS)-6-[(3-fluorophenyl)amino]-5′-methyl-N-[(1-methylcyclopropyl)sulfonyl]-5,16-dioxo-1,1′,2′,6,7,8,9,10,11,13a,14,15,16,16a-tetradecahydrospiro[cyclopropa[e]pyrrolo[1,2-a][1,4]diazacyclopentadecine-2,3′-pyrano[2,3-c]quinoline]-14a(5H)-carboxamide]	6.59	0.428		
COc1ccc2nc(C(F)(F)F)c3c(c2c1)CC[C@]1(C[C@H]2C(=O)N[C@]4(C(=O)NS(=O)(=O)C5(C)CC5)C[C@H]4/C=C\CCCCC[C@H](NC(=O)OC(C)(C)C(F)(F)F)C(=O)N2C1)O3 [Example 348, 1,1,1-trifluoro-2-methylpropan-2-yl [(2R,6S,12Z,13aS,14aR,16aS)-9′-methoxy-14a-{[(1-methylcyclopropyl)sulfonyl]carbamoyl}-5,16-dioxo-5′-(trifluoromethyl)-1,1′,2′,5,6,7,8,9,10,11,13a,14,14a,15,16,16a-hexadecahydrospiro[cyclopropa[e]pyrrolo[1,2-a][1,4]diazacyclopentadecine-2,3′-pyrano[2,3-c]quinolin]-6-yl]carbamate]			9.23	0.046
COc1ccc2nc(C)c3c(c2c1)CC[C@]1(C[C@H]2C(=O)N[C@]4(C(=O)NS(=O)(=O)C5(C)CC5)C[C@H]4/C=C\CCCCC[C@H](NC(=O)OCC4(C(F)(F)F)CC4)C(=O)N2C1)O3 [Example 349, [1-(trifluoromethyl)cyclopropyl]methyl [(2R,6S,12Z,13aS,14aR,16aS)-9′-methoxy-5′-methyl-14a-{[(1-methylcyclopropyl)sulfonyl]carbamoyl}-5,16-dioxo-1,1′,2′,5,6,7,8,9,10,11,13a,14,14a,15,16,16a-hexadecahydrospiro[cyclopropa[e]pyrrolo[1,2-a][1,4]diazacyclopentadecine-2,3′-pyrano[2,3-c]quinolin]-6-yl]carbamate]			4.55	0.012
